Patent publication US6737383B1, “Herbicidal oxadiazolidines” (priority 1999, dated 2004)

Columns and labels:
[1] = tested on: pigweed; experiment: Test B pre/postemergence pigweed; assay type: in vivo, Amaranthus retroflexus
Outline: (§1)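 Herbicidal effect was estimated by eye on a ten-point control scale after plants spent twelve to sixteen days in a greenhouse following soil or foliar treatment. Foliar sprays targeted plants at one to four leaves; all doses were formulated in a non-phytotoxic solvent with surfactant.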

[2] = tested on: bedstraw; experiment: Test B pre/postemergence bedstraw; assay type: in vivo, Galium aparine; details: Preemergence; for Bedstraw plant response rating: scale 0 to 10, 0 is no effect, 10 is complete control
Outline: as §1

[3] = tested on: sugar beet; experiment: Test B pre/postemergence sugar beet; assay type: in vivo, Beta vulgaris
Outline: as §1

[4] = tested on: wheat; experiment: Test B pre/postemergence wheat; assay type: in vivo, Triticum aestivum
Outline: as §1

[5] = tested on: morningglory; experiment: Test B pre/postemergence morningglory; assay type: in vivo, Ipomoea hederacea
Outline: as §1

[6] = tested on: soybean; experiment: Test B pre/postemergence soybean; assay type: in vivo, Glycine max
Outline: as §1

[7] = tested on: velvetleaf; experiment: Test B pre/postemergence velvetleaf; assay type: in vivo, Abutilon theophrasti
Outline: as §1

[8] = tested on: giant foxtail; experiment: Test B pre/postemergence giant foxtail; assay type: in vivo, Setaria faberii
Outline: as §1

[9] = tested on: wild oat; experiment: Test B pre/postemergence wild oat; assay type: in vivo, Avena fatua
Outline: as §1

[10] = tested on: cocklebur; experiment: Test B pre/postemergence cocklebur; assay type: in vivo, Xanthium strumarium
Outline: as §1

[11] = tested on: purple nutsedge; experiment: Test B pre/postemergence purple nutsedge; assay type: in vivo, Cyperus rotundus
Outline: as §1

[12] = tested on: surinam grass; experiment: Test B pre/postemergence surinam grass; assay type: in vivo, Brachiaria decumbens
Outline: as §1

[13] = tested on: blackgrass; experiment: Test B pre/postemergence blackgrass; assay type: in vivo, Alopecurus myosuroides
Outline: as §1

[14] = tested on: corn; experiment: Test B pre/postemergence corn; assay type: in vivo, Zea mays
Outline: as §1

[15] = tested on: rape; experiment: Test B pre/postemergence rape; assay type: in vivo, Brassica napus
Outline: as §1

[16] = tested on: crabgrass; experiment: Test B pre/postemergence crabgrass; assay type: in vivo, Digitaria sanguinalis
Outline: as §1

[17] = Postemergence, Rate 62 g/ha, scale of 0 to 10, 0 is no effect, 10 is complete control
[18] = Postemergence, Rate 125 g/ha, scale 0 to 10, 0 is no effect, 10 is complete control
[19] = Postemergence, Rate 500 g/ha, scale 0 to 10, 0 is no effect, 10 is complete control
[20] = Preemergence, Rate 62 g/ha, scale of 0 to 10 where 0 is no effect and 10 is complete control
[21] = Preemergence, Rate 125 g/ha, scale 0 to 10, 0 is no effect, 10 is complete control
[22] = Preemergence, Rate 500 g/ha, scale of 0 to 10 where 0 is no effect and 10 is complete control
[23] = Rate 250 g/ha, Postemergence, scale of 0 to 10 where 0 is no effect and 10 is complete control

CC(C)N(C(=O)n1oc(=O)n(COCc2ccccc2)c1=O)c1ccc(F)cc1F [Compound 520]
6: Plant response rating, Velvetleaf [7, 19] | Plant response rating, Blackgrass [13, 19]
0: Redroot pigweed plant response rating [1, 17] | Plant response rating, Redroot pigweed [1, 19] | Plant response rating, Redroot pigweed [1, 20] | Redroot pigweed plant response rating [1, 21] | Redroot pigweed plant response rating (0 to 10 scale) ([1]; Preemergence, Rate 250 g/ha) | Redroot pigweed plant response rating [1, 22] | Plant response rating, Bedstraw ([2]; Rate 62 g/ha, scale of 0 to 10 where 0 is no effect and 10 is complete control) | Bedstraw plant response rating ([2]; Rate 125 g/ha) | Bedstraw plant response rating (0 to 10 scale) ([2]; Rate 250 g/ha) | Bedstraw plant response rating ([2]; Rate 500 g/ha) | Sugarbeets plant response rating [3, 17] | Sugarbeets plant response rating [3, 18] | Plant response rating, Sugarbeets [3, 20] | Sugarbeets plant response rating [3, 21] | Sugarbeets plant response rating (0 to 10 scale) ([3]; Preemergence, Rate 250 g/ha) | Sugarbeets plant response rating [3, 22] | Plant response rating, Sugarbeets [3, 23] | Wheat plant response rating [4, 17] | Wheat plant response rating [4, 18] | Plant response rating, Wheat [4, 19] | Plant response rating, Wheat [4, 20] | Wheat plant response rating [4, 21] | Wheat plant response rating (0 to 10 scale) ([4]; Preemergence, Rate 250 g/ha) | Wheat plant response rating [4, 22] | Plant response rating, Wheat [4, 23] | Plant response rating, Morningglory [5, 20] | Morningglory plant response rating [5, 21] | Morningglory plant response rating (0 to 10 scale) ([5]; Preemergence, Rate 250 g/ha) | Morningglory plant response rating [5, 22] | Plant response rating, Soybean [6, 20] | Soybean plant response rating [6, 21] | Soybean plant response rating (0 to 10 scale) ([6]; Preemergence, Rate 250 g/ha) | Soybean plant response rating [6, 22] | Plant response rating, Velvetleaf [7, 20] | Velvetleaf plant response rating [7, 21] | Velvetleaf plant response rating (0 to 10 scale) ([7]; Preemergence, Rate 250 g/ha) | Velvetleaf plant response rating [7, 22] | Wild oats plant response rating [9, 17] | Wild oats plant response rating [9, 18] | Plant response rating, Wild oats [9, 19] | Plant response rating, Wild oats [9, 20] | Wild oats plant response rating [9, 21] | Wild oats plant response rating (0 to 10 scale) ([9]; Preemergence, Rate 250 g/ha) | Wild oats plant response rating [9, 22] | Plant response rating, Wild oats [9, 23] | Cocklebur plant response rating [10, 17] | Cocklebur plant response rating [10, 18] | Plant response rating, Cocklebur [10, 19] | Plant response rating, Cocklebur [10, 20] | Cocklebur plant response rating [10, 21] | Cocklebur plant response rating (0 to 10 scale) ([10]; Preemergence, Rate 250 g/ha) | Cocklebur plant response rating [10, 22] | Plant response rating, Cocklebur [10, 23] | Nutsedge plant response rating [11, 17] | Nutsedge plant response rating [11, 18] | Plant response rating, Nutsedge [11, 19] | Plant response rating, Nutsedge [11, 20] | Nutsedge plant response rating [11, 21] | Nutsedge plant response rating (0 to 10 scale) ([11]; Preemergence, Rate 250 g/ha) | Nutsedge plant response rating [11, 22] | Plant response rating, Nutsedge [11, 23] | B. signalgrass plant response rating [12, 17] | B. signalgrass plant response rating [12, 18] | Plant response rating, B. signalgrass [12, 20] | B. signalgrass plant response rating [12, 21] | B. signalgrass plant response rating (0 to 10 scale, 0 is no effect, 10 is complete control) ([12]; Preemergence, Rate 250 g/ha) | B. signalgrass plant response rating ([12]; Preemergence, Rate 500 g/ha, scale 0 to 10, 0 is no effect, 10 is complete control) | Plant response rating, B. signalgrass [12, 23] | Blackgrass plant response rating [13, 17] | Blackgrass plant response rating [13, 18] | Plant response rating, Blackgrass [13, 20] | Blackgrass plant response rating [13, 21] | Blackgrass plant response rating (0 to 10 scale) ([13]; Preemergence, Rate 250 g/ha) | Blackgrass plant response rating [13, 22] | Plant response rating, Blackgrass [13, 23] | Corn plant response rating [14, 17] | Corn plant response rating [14, 18] | Plant response rating, Corn [14, 19] | Plant response rating, Corn [14, 20] | Corn plant response rating [14, 21] | Corn plant response rating (0 to 10 scale) ([14]; Preemergence, Rate 250 g/ha) | Corn plant response rating [14, 22] | Plant response rating, Corn [14, 23] | Rape plant response rating [15, 17] | Rape plant response rating [15, 18] | Plant response rating, Rape [15, 20] | Rape plant response rating [15, 21] | Rape plant response rating (0 to 10 scale) ([15]; Preemergence, Rate 250 g/ha) | Rape plant response rating [15, 22] | Plant response rating, Rape [15, 23]
9: Plant response rating, Giant foxtail [8, 19] | Plant response rating, Giant foxtail [8, 20] | Plant response rating, Rape [15, 19] | Plant response rating, Crabgrass [16, 19] | Plant response rating, Crabgrass [16, 20] | Crabgrass plant response rating [16, 21]
4: Morningglory plant response rating [5, 18] | Plant response rating, Morningglory [5, 23] | Soybean plant response rating [6, 18] | Plant response rating, Soybean [6, 19] | Plant response rating, Soybean [6, 23] | Velvetleaf plant response rating [7, 18] | Plant response rating, Velvetleaf [7, 23] | Giant foxtail plant response rating [8, 18] | Plant response rating, Giant foxtail [8, 23] | Plant response rating, Crabgrass [16, 23]
10: Plant response rating, Morningglory [5, 19] | Giant foxtail plant response rating [8, 21] | Giant foxtail plant response rating (0 to 10 scale) ([8]; Preemergence, Rate 250 g/ha) | Giant foxtail plant response rating [8, 22] | Crabgrass plant response rating (0 to 10 scale) ([16]; Preemergence, Rate 250 g/ha) | Crabgrass plant response rating [16, 22]
2: Plant response rating, Sugarbeets [3, 19] | Soybean plant response rating [6, 17] | Giant foxtail plant response rating [8, 17] | Plant response rating, B. signalgrass [12, 19] | Crabgrass plant response rating [16, 17]
3: Redroot pigweed plant response rating [1, 18] | Morningglory plant response rating [5, 17] | Velvetleaf plant response rating [7, 17] | Crabgrass plant response rating [16, 18]
